From ChEMBL document CHEMBL1152102, “6-Phenyl-6-alkylamido-5,6-dihydro-2H-pyran-2-ones: novel HIV protease inhibitors” (Bioorg Med Chem Lett, 1996) come the findings set out here.

What is called IC50 is the concentration at which inhibition is half-maximal.

The experiment concerns the target Human immunodeficiency virus type 1 protease (Human immunodeficiency virus 1, UniProt Q72874). Briefly: In vitro inhibitory activity against purified HIV-1 protease at a pH of 4.7 and a final enzyme concentration of 0.45-1.1 nM.

`CC(C)c1ccccc1SC1=C(O)OC(CCCC(=O)N(C)Cc2ccccc2)(c2ccccc2)CC1=O` (stereo not given) registered a half-maximal inhibitory concentration (IC50) of 676 nM.
`CC(C)c1ccccc1SC1=C(O)OC(CCCC(=O)Nc2ccccc2)(c2ccccc2)CC1=O` (stereo not given) displayed a 50% inhibitory concentration (IC50) of 429 nM.
The value for `CC(C)c1ccccc1SC1=C(O)OC(CCCC(=O)NCc2ccccc2)(c2ccccc2)CC1=O` (stereo not given) was 81 nM; that for `CC(C)c1ccccc1SC1=C(O)OC(CCCCC(=O)NCCc2ccccc2)(c2ccccc2)CC1=O` (stereo not given) was 71 nM.
The same measure for `CC(C)c1ccccc1SC1=C(O)OC(CCC(=O)N2CCNCC2)(c2ccccc2)CC1=O` (stereo not given): 1110 nM; for `CC(C)c1ccccc1SC1=C(O)OC(CCCCC(=O)N2CCOCC2)(c2ccccc2)CC1=O` (stereo not given): 195 nM; for `CC(C)c1ccccc1SC1=C(O)OC(CCCCC(=O)N2CCN(C(=O)OC(C)(C)C)CC2)(c2ccccc2)CC1=O` (stereo not given): 127 nM.
Turning to `CC(C)c1ccccc1SC1=C(O)OC(CCCC(N)=O)(c2ccccc2)CC1=O` (stereo not given), half-maximal inhibition (IC50) was put at 101 nM.
The same measure for `CC(C)c1ccccc1SC1=C(O)OC(CCCC(=O)NCCc2ccccc2)(c2ccccc2)CC1=O` (stereo not given): 146 nM; for `CC(C)c1ccccc1SC1=C(O)OC(CCCC(=O)N2CCSCC2)(c2ccccc2)CC1=O` (stereo not given): 285 nM.
Consider `CC(C)c1ccccc1SC1=C(O)OC(CCCCC(=O)N2CCSCC2)(c2ccccc2)CC1=O` (stereo not given), for which the IC50 was found to be 583 nM.
`CC(C)c1ccccc1SC1=C(O)OC(CCCC(=O)N2CCOCC2)(c2ccccc2)CC1=O` (stereo not given) registered an IC50 of 186 nM.
The same measure for `CC(C)c1ccccc1SC1=C(O)OC(CCCCC(N)=O)(c2ccccc2)CC1=O` (stereo not given): 92 nM; for `CCCCCC1(c2ccccc2)CC(=O)C(Sc2ccccc2C(C)C)=C(O)O1` (stereo not given): 88 nM; for `CC(C)c1ccccc1SC1=C(O)OC(CCCCC(=O)NCc2ccccc2)(c2ccccc2)CC1=O` (stereo not given): 26 nM.
For the compound `CC(C)c1ccccc1SC1=C(O)OC(CCCC(=O)N2CCN(C(=O)OC(C)(C)C)CC2)(c2ccccc2)CC1=O` (stereo not given), the IC50 was found to be 124 nM.
As for `CC(C)c1ccccc1SC1=C(O)OC(CCCCC(=O)O)(c2ccccc2)CC1=O` (stereo not given), the concentration for half-maximal inhibition (IC50) was determined as 1.8 nM.
The value for `CC(C)c1ccccc1SC1=C(O)OC(CCCC(=O)N(C)CCc2ccccc2)(c2ccccc2)CC1=O` (stereo not given) was 216 nM; that for `CC(C)c1ccccc1SC1=C(O)OC(CCC(=O)N2CCN(C(=O)OC(C)(C)C)CC2)(c2ccccc2)CC1=O` (stereo not given) was 1270 nM.
In turn, `CC(C)c1ccccc1SC1=C(O)OC(CCCC(=O)N(C)c2ccccc2)(c2ccccc2)CC1=O` (stereo not given) gave an IC50 of 624 nM.
The same measure for `CC(C)c1ccccc1SC1=C(O)OC(CCC(=O)N2CCOCC2)(c2ccccc2)CC1=O` (stereo not given): 2440 nM; for `CC(C)c1ccccc1SC1=C(O)OC(CCCC(=O)N2CCNCC2)(c2ccccc2)CC1=O` (stereo not given): 564 nM.
The same measure for `CC(C)c1ccccc1SC1=C(O)OC(CCCCC(=O)N2CCNCC2)(c2ccccc2)CC1=O` (stereo not given): 234 nM; for `CC(C)c1ccccc1SC1=C(O)OC(CCCCC(=O)Nc2ccccc2)(c2ccccc2)CC1=O` (stereo not given): 91 nM.
The value for `CC(C)c1ccccc1SC1=C(O)OC(CCC(=O)N2CCSCC2)(c2ccccc2)CC1=O` (stereo not given) was 1100 nM.
